# Experiments:
# [1] = molecular target: T1, human URAT1 (Homo sapiens, UniProt Q96S37); conditions: for URAT1 inhibitory activity (in words): human URAT1, HEK293-URAT1 cells
# T1 sequence (Q96S37 1-553): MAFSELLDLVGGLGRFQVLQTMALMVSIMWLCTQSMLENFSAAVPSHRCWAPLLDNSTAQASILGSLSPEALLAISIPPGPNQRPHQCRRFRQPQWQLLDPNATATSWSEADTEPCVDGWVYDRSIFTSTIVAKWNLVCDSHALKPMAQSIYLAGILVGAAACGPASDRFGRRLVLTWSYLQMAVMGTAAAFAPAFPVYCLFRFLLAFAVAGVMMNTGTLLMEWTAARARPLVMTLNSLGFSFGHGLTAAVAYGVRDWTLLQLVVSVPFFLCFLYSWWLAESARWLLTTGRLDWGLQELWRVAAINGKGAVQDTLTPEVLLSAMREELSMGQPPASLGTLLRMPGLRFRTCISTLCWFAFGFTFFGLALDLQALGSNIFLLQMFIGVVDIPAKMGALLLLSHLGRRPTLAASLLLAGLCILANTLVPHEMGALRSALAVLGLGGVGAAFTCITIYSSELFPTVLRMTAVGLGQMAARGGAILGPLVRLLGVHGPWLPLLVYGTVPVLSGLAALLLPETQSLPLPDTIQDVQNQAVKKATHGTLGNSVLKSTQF
# Protocol: After incubation for 48 h, when the HEK293-URAT1 cells and mock cells were grown to confluence, the cells were treated with 0.25% trypsin for 1–2 min. Thereafter, the digested cells were diluted to a density of 1.5 × 10^5/mL and seeded onto the 24-well cell culture plates at 1 mL/well for about 48 h. […] The HEK293-URAT1 cells were then washed rapidly three times with ice-cold HBSS (Cl^− free) and lysed with 0.1 M aqueous NaOH solution. After that, 500-μL aliquots of cell lysates were transferred to scintillation vials and mixed with scintillation solution. The radioactivity in the cells was measured by a liquid scintillation counter (PerkinElmer, Waltham, MA, USA).
# [2] = set-up: method as in PMID 17531180; conditions: weak organic acid; cited from earlier work
# [3] = ratio of IC50 values against human URAT1
structure (smiles),measurement,setting,value
"CCn1c(Br)nnc1SCC(=O)O [1a, Sodium 2-((5-bromo-4-ethyl-4H-1,2,4-triazol-3-yl)thio)acetate]",IC50,[1],18.4 ± 3.36 µM
"CCCn1c(Br)nnc1SCC(=O)O [1b, Sodium 2-((5-bromo-4-n-propyl-4H-1,2,4-triazol-3-yl)thio)acetate]",IC50,[1],4.83 ± 1.02 µM
"O=C([O-])CSc1nnc(Br)n1CC1CCCCC1.[Na+] [1c, Sodium 2-((5-bromo-4-(cyclohexylmethyl)-4H-1,2,4-triazol-3-yl)thio)acetate]",melting point,,135 °C (dec.)
same,IC50,[1],4.6 ± 0.88 µM
"O=C([O-])CSc1nnc(Br)n1CC12CC3CC(CC(C3)C1)C2.[Na+] [1d, Sodium 2-((4-(1-adamantylmethyl)-5-bromo-4H-1,2,4-triazol-3-yl)thio)acetate]",melting point,,194 °C (dec.)
same,IC50,[1],5.11 ± 0.79 µM
"O=C([O-])CSc1nnc(Br)n1Cc1ccccc1.[Na+] [1e, Sodium 2-((4-benzyl-5-bromo-4H-1,2,4-triazol-3-yl)thio)acetate]",melting point,,119 to 121 °C
same,IC50,[1],2.98 ± 0.6 µM
"O=C([O-])CSc1nnc(Br)n1Cc1cccnc1.[Na+] [1f, Sodium 2-((5-bromo-4-(3-pyridinylmethyl)-4H-1,2,4-triazol-3-yl)thio)acetate]",melting point,,109 to 111 °C
same,IC50,[1],14.2 ± 4.71 µM
"O=C([O-])CSc1nnc(Br)n1Cc1ccco1.[Na+] [1g, Sodium 2-((5-bromo-4-(2-furanylmethyl)-4H-1,2,4-triazol-3-yl)thio)acetate]",melting point,,108 to 111 °C
same,IC50,[1],4.54 ± 0.69 µM
"O=C([O-])CSc1nnc(Br)n1Cc1cccs1.[Na+] [1h, Sodium 2-((5-bromo-4-(2-thiophenylmethyl)-4H-1,2,4-triazol-3-yl)thio)acetate]",IC50,[1],0.035 ± 0.01 µM
same,fold more potent than benzbromarone,[1]; [3],8 fold
same,fold more potent than parent lesinurad,[1]; [3],200 fold
"O=C([O-])CSc1nnc(Br)n1Cc1ccc(Cl)s1.[Na+] [1ha, Sodium 2-((5-bromo-4-((5-chloro-2-thiophenyl)methyl)-4H-1,2,4-triazol-3-yl)thio)acetate]",melting point,,97 °C (dec.)
same,IC50,[1],11.2 ± 2.36 µM
"Cc1ccc(Cn2c(Br)nnc2SCC(=O)[O-])s1.[Na+] [1hb, Sodium 2-((5-bromo-4-((5-methyl-2-thiophenyl)methyl)-4H-1,2,4-triazol-3-yl)thio)acetate]",melting point,,157 °C (dec.)
same,IC50,[1],> 50 µM
"CCc1ccc(Cn2c(Br)nnc2SCC(=O)[O-])s1.[Na+] [1hc, Sodium 2-((5-bromo-4-((5-ethyl-2-thiophenyl)methyl)-4H-1,2,4-triazol-3-yl)thio)acetate]",melting point,,178 to 180 °C
same,IC50,[1],7.98 ± 2.14 µM
"Cc1ccsc1Cn1c(Br)nnc1SCC(=O)[O-].[Na+] [1hd, Sodium 2-((5-bromo-4-((3-methyl-2-thiophenyl)methyl)-4H-1,2,4-triazol-3-yl)thio)acetate]",melting point,,158 °C (dec.)
same,IC50,[1],3.04 ± 0.84 µM
"Cc1cc(Cn2c(Br)nnc2SCC(=O)[O-])sc1Br.[Na+] [1he, Sodium 2-((5-bromo-4-((5-bromo-4-methyl-2-thiophenyl)methyl)-4H-1,2,4-triazol-3-yl)thio)acetate]",melting point,,87 °C (dec.)
same,IC50,[1],6.1 ± 1.17 µM
"O=C([O-])CSc1nnc(Br)n1Cc1ccsc1.[Na+] [1hf, Sodium 2-((5-bromo-4-((3-thiophenyl)methyl)-4H-1,2,4-triazol-3-yl)thio)acetate]",melting point,,124 to 126 °C
same,IC50,[1],> 50 µM
same,URAT1 inhibitory activity (in words),[1],complete loss of URAT1 inhibitory activity
"O=C([O-])CSc1nnc(Br)n1Cc1ccc(-c2ccccc2)s1.[Na+] [1hg, Sodium 2-((5-bromo-4-((5-phenyl-2-thiophenyl)methyl)-4H-1,2,4-triazol-3-yl)thio)acetate]",melting point,,212 °C (dec.)
same,IC50,[1],31.7 ± 9.34 µM
"O=C([O-])CSc1nnc(Br)n1Cc1sc2ccccc2c1Br.[Na+] [1hh, Sodium 2-((5-bromo-4-((3-bromobenzo[b]thiophen-2-yl)methyl)-4H-1,2,4-triazol-3-yl)thio)acetate]",melting point,,99 °C (dec.)
same,IC50,[1],0.12 ± 0.03 µM
"O=C([O-])CSc1nnc(Br)n1Cc1cccc2c1sc1ccccc12.[Na+] [1hi, Sodium 2-((5-bromo-4-((dibenzo[b,d]thiophen-4-yl)methyl)-4H-1,2,4-triazol-3-yl)thio)acetate]",melting point,,74 °C (dec.)
same,IC50,[1],18.5 ± 5.41 µM
"O=C([O-])CSc1nnc(Br)n1Cc1ccc(-c2ccccc2)cc1.[Na+] [1i, Sodium 2-((4-(biphenyl-4-methyl)-5-bromo-4H-1,2,4-triazol-3-yl)thio)acetate]",melting point,,199 to 201 °C
same,IC50,[1],1.16 ± 0.34 µM
"O=C([O-])CSc1nnc(Br)n1C(c1ccccc1)c1ccccc1.[Na+] [1j, Sodium 2-((5-bromo-4-(diphenylmethyl)-4H-1,2,4-triazol-3-yl)thio)acetate]",melting point,,195 °C (dec.)
same,IC50,[1],1.15 ± 0.25 µM
"O=C([O-])CSc1nnc(Br)n1Cc1ccc2occc2c1.[Na+] [1k, Sodium 2-((4-(benzo[b]furan-5-methyl)-5-bromo-4H-1,2,4-triazol-3-yl)thio)acetate]",melting point,,92 °C (dec.)
same,IC50,[1],2.61 ± 0.4 µM
"N#Cc1ccc(Cn2c(Br)nnc2SCC(=O)O)c2ccccc12 [1l, Sodium 2-((5-bromo-4-((4-cyano-1-naphthyl)methyl)-4H-1,2,4-triazol-3-yl)thio)acetate]",IC50,[1],3.8 ± 0.78 µM
"O=C([O-])CSc1nnc(Br)n1Cc1ccc2ccccc2c1.[Na+] [1m, Sodium 2-((5-bromo-4-(2-naphthylmethyl)-4H-1,2,4-triazol-3-yl)thio)acetate]",melting point,,118 °C (dec.)
same,IC50,[1],4.66 ± 1.04 µM
"O=C([O-])CSc1nnc(Br)n1Cc1ccc2ncccc2c1.[Na+] [1n, Sodium 2-((5-bromo-4-(quinoline-6-methyl)-4H-1,2,4-triazol-3-yl)thio)acetate]",melting point,,122 °C (dec.)
same,IC50,[1],1.36 ± 0.24 µM
CC(C)(Sc1nnc(Br)n1Cc1ccc(C#N)c2ccccc12)C(=O)O [1o],IC50,[1],1.96 ± 0.34 µM
"N#Cc1ccc(Cn2c(Br)nnc2SC2(C(=O)[O-])CCC2)c2ccccc12.[Na+] [1p, Sodium 1-((5-bromo-4-((4-cyano-1-naphthyl)methyl)-4H-1,2,4-triazol-3-yl)thio)cyclobutanecarboxylate]",melting point,,136 °C (dec.)
same,IC50,[1],0.59 ± 0.17 µM
"N#Cc1ccc(Cn2c(Br)cnc2SCC(=O)[O-])c2ccccc12.[Na+] [1q, Sodium 2-((5-bromo-1-((4-cyano-1-naphthyl)methyl)-1H-imidazol-2-yl)thio)acetate]",melting point,,161 °C (dec.)
same,IC50,[1],5.55 ± 0.98 µM
"CC(C)(Sc1ncc(Br)n1Cc1ccc(C#N)c2ccccc12)C(=O)[O-].[Na+] [1r, Sodium 2-((5-bromo-1-((4-cyano-1-naphthyl)methyl)-1H-imidazol-2-yl)thio)-2-methylpropionate]",melting point,,243 °C (dec.)
same,IC50,[1],0.21 ± 0.07 µM
"N#Cc1ccc(Cn2c(Br)cnc2SC2(C(=O)[O-])CCC2)c2ccccc12.[Na+] [1s, Sodium 1-((5-bromo-1-((4-cyano-1-naphthyl)methyl)-1H-imidazol-2-yl)thio)cyclobutanecarboxylate]",melting point,,285 °C (dec.)
same,IC50,[1],0.48 ± 0.11 µM
"N#Cc1ccc(Cc2cnccc2SCC(=O)[O-])c2ccccc12.[Na+] [1t, Sodium 2-((3-((4-cyano-1-naphthyl)methyl)pyridin-4-yl)thio)acetate]",melting point,,268 °C (dec.)
same,IC50,[1],8.83 ± 1.02 µM
"CC(C)(Sc1ccncc1Cc1ccc(C#N)c2ccccc12)C(=O)O [1u, Sodium 2-((3-((4-cyano-1-naphthyl)methyl)pyridin-4-yl)thio)-2-methylpropionate]",IC50,[1],1.39 ± 0.42 µM
"N#Cc1ccc(Cc2cnccc2SC2(C(=O)[O-])CCC2)c2ccccc12.[Na+] [1v, Sodium 1-((3-((4-cyano-1-naphthyl)methyl)pyridin-4-yl)thio)cyclobutanecarboxylate]",melting point,,296 °C (dec.)
same,IC50,[1],1.15 ± 0.2 µM
"CC(C)(Sc1ncc(Br)n1Cc1cccs1)C(=O)[O-].[Na+] [1w, Sodium 2-((5-bromo-1-((2-thiophenyl)methyl)-1H-imidazol-2-yl)thio)-2-methylpropionate]",melting point,,75 °C (dec.)
same,IC50,[1],17.4 ± 3.98 µM
same,URAT1 inhibitory activity (in words),[1],weak
"O=C([O-])C1(Sc2ncc(Br)n2Cc2cccs2)CCC1.[Na+] [1x, Sodium 1-((5-bromo-1-((2-thiophenyl)methyl)-1H-imidazol-2-yl)thio)cyclobutanecarboxylate]",melting point,,210 °C (dec.)
same,IC50,[1],0.32 ± 0.07 µM
same,URAT1 inhibitory activity (in words),[1],highly potent
O=c1[nH]c(=O)c2[nH]c(=O)[nH]c2[nH]1 [Uric acid],pKa,[2],5.75
